Assay results published in paper PMC11883664, “Expansion of the diversity of dispersin scaffolds” (Acta Crystallographica Section D: Structural Biology, 2025).

Experiments:
DispLp = target: T1, DispLp (Lactiplantibacillus paraplantarum, UniProt A0AAD0TQY4); assay: crystal structure ([…] Å) and ITC; type: binding
T1 construct: gene LP667_05900; mature polypeptide with polyhistidine tag
T1 sequence (A0AAD0TQY4 31-361): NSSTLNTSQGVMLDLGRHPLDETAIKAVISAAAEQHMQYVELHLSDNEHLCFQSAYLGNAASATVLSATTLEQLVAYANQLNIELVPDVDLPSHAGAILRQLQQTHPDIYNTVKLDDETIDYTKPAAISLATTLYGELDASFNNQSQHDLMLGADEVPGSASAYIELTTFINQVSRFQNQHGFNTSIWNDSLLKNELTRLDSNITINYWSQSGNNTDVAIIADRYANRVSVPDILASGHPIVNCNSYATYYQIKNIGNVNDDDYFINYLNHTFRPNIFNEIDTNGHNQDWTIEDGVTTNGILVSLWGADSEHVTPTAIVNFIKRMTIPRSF

DispSf = target: T2, DispSf; assay: ITC; type: binding, Mammaliicoccus fleurettii
T2 construct: mature polypeptide with polyhistidine tag

DispTs2 [1] = target: T3, DispTs2 (Terribacillus saccharophilus, UniProt A0A075LPR4); assay: ITC and crystal structure ([…] Å); type: binding
T3 construct: gene GZ22_15930; mature polypeptide with polyhistidine tag

DispTs2 [2] = target: T3, DispTs2; assay: crystal structure by soaking ([…] Å); only the NAG-thiazoline unit (NGT) modelled; type: binding
purified protein = substrate: CC(=O)N[C@H]1[C@H](Oc2ccc3c(C)cc(=O)oc3c2)O[C@H](CO)[C@@H](O)[C@@H]1O; assay: purified protein

`CC(=O)N[C@H]1CN2CC[C@H](O)[C@@H]2[C@@H](O)[C@@H]1O` [6-Ac-Cas, 6-acetamido-6-deoxy-castanospermine] gave a Kd (DispLp) of 1120 µM, a Kd (DispSf) of 15 µM and a Kd (DispTs2 [1]) of 6 µM.

For `CC(=O)N[C@H]1[C@H](OC[C@H]2O[C@@H]3SC(C)=N[C@@H]3[C@@H](O)[C@@H]2O)O[C@H](CO)[C@@H](O)[C@@H]1O` [di-NAG-thiazoline, GlcNAc-β(1,6)-GlcNAc-thiazoline], the “crystal structure by soaking (2.17 Å); only the NAG-thiazoline unit (NGT) modell” value (DispTs2 [2]) was “The electron density for the first unit of di-NAG-thiazoline (corresponding to GlcNAc-thiazoline, NGT in the PDB dictionary) was well defined”.

B1: DispTs2 (Terribacillus saccharophilus) (protein)
chain: QDQEKGITIDISRKYYSIKTLKAIVDEISANGGDYLQLHFSDNESYAIASEFLGQNSENPNSAYLTKKELLSLIAYSNDRNIMVIPDIDLPAHSKGWLNIMKEKDSGLYTDIVTDYSEDTLDYHNNAVALYTANQLLDEVLDLFYQPKFAGKQRIVLGGDEVPGSGAHQTDFIRFMNQIAKTAKASNYEPQMWNDSITPEGIQNLDRSFSILYWKQSTLSNGAQSLDVQDFEENGLSVYNYNAYSLYFLPSTRFTQEDITEQIDYMKWAYAYNKFFYISDYYKQVDTPNVKGSSLVFWGEHANDLSQERLLKQEKPLIQNFLGL
B1 was tested, and the Km (purified protein) was 2500 ± 100 µM.
